This assay deals with MCH receptor (Homo sapiens, UniProt Q99705). Description: High throughput functional screening FLIPR/FDSS6000: inhibition of MCH-evoked intracellular Ca2+ changes. Conditions: class by percent of control at 10^-7 M or by IC50; read-out: class. It is filed as cell-based. In a few lines:
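Antagonism was measured as inhibition of calcium responses to 50 nM MCH, monitored 290 s at ex 488/em 530 nm on FLIPR or FDSS6000. Beforehand, cells bearing a constitutively active MCH receptor received Fluo4-AM (4 μM, 1 h, 37 °C) with probenecid, and test compound for 3 min.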

Where only a bound is given, the exact number is not on record here.

The record followed here is US20070010671A1, “Novel quinazoline derivatives and methods of treatment related to the use thereof” (priority 2003, published 2007).

For the compound `COc1ccc(NC(=O)N[C@H]2CC[C@@H](Nc3nc(N(C)C)c4ccccc4n3)CC2)c(OC)c1` [compound 79], the IC50 was below 50 nM.

`Cc1ccc(NC(=O)N[C@H]2CC[C@@H](Nc3nc(N(C)C)c4ccccc4n3)CC2)c(C)c1` [compound 80]: the IC50 is above 200 nM.

Take `COc1ccc(OC)c(NC(=O)N[C@H]2CC[C@@H](Nc3nc(N(C)C)c4ccccc4n3)CC2)c1` [compound 81]: the IC50 lay in the range of 50 to 200 nM.

As for `Cc1ccc(C)c(NC(=O)N[C@H]2CC[C@@H](Nc3nc(N(C)C)c4ccccc4n3)CC2)c1` [compound 82], the IC50 is above 200 nM.

As to `CN(C)c1nc(N[C@H]2CC[C@@H](NC(=O)Nc3c(Br)cc(F)cc3Br)CC2)nc2ccccc12` [compound 83], the IC50 was above 200 nM.

As for `CN(C)c1nc(N[C@H]2CC[C@@H](NC(=O)Nc3c(Cl)cccc3Cl)CC2)nc2ccccc12` [compound 84], the IC50 was above 200 nM.

`CCc1cccc(CC)c1NC(=O)N[C@H]1CC[C@@H](Nc2nc(N(C)C)c3ccccc3n2)CC1` [compound 85, N-(2,6-diethylphenyl)-N′-(cis-4-{[4-(dimethylamino)quinazolin-2-yl]amino}cyclohexyl)urea]: the IC50 was below 50 nM.

In the case of `CN(C)c1nc(N[C@H]2CC[C@@H](NC(=O)Nc3ccccc3Cc3ccccc3)CC2)nc2ccccc12` [compound 86], the IC50 is above 200 nM.

For `Cc1ccc(Cl)c(NC(=O)N[C@H]2CC[C@@H](Nc3nc(N(C)C)c4ccccc4n3)CC2)c1` [compound 87], the IC50 was above 200 nM.

Turning to `CN(C)c1nc(N[C@H]2CC[C@@H](NC(=O)Nc3cc([N+](=O)[O-])ccc3Cl)CC2)nc2ccccc12` [compound 88], the IC50 lay within 50 to 200 nM.

Take `CN(C)c1nc(N[C@H]2CC[C@@H](NC(=O)Nc3c(Cl)cccc3C(F)(F)F)CC2)nc2ccccc12` [compound 89, N-[2-chloro-6-(trifluoromethyl)phenyl]-N′-(cis-4-{[4-(dimethylamino)quinazolin-2-yl]amino}cyclohexyl)urea]: the IC50 is below 50 nM.

For `Cc1cccc(Cl)c1NC(=O)N[C@H]1CC[C@@H](Nc2nc(N(C)C)c3ccccc3n2)CC1` [compound 90], the IC50 was below 50 nM.

As to `CN(C)c1nc(N[C@H]2CC[C@@H](NC(=O)NCc3ccccc3Cl)CC2)nc2ccccc12` [compound 91, N-(2-chlorobenzyl)-N′-(cis-4-{[4-(dimethylamino)quinazolin-2-yl]amino}cyclohexyl)urea], the IC50 is below 50 nM.

In the case of `CCOc1ccccc1NC(=O)N[C@H]1CC[C@@H](Nc2nc(N(C)C)c3ccccc3n2)CC1` [compound 93, N-(cis-4-{[4-(dimethylamino)quinazolin-2-yl]amino}cyclohexyl)-N′-(2-ethoxyphenyl)urea], the IC50 was below 50 nM.

Consider `CCc1cccc(C(C)C)c1NC(=O)N[C@H]1CC[C@@H](Nc2nc(N(C)C)c3ccccc3n2)CC1` [compound 94, N-(cis-4-{[4-(dimethylamino)quinazolin-2-yl]amino}cyclohexyl)-N′-(2-ethyl-6-isopropylphenyl)urea], for which the IC50 was below 50 nM.

As to `CCc1ccccc1NC(=O)N[C@H]1CC[C@@H](Nc2nc(N(C)C)c3ccccc3n2)CC1` [compound 95, N-(cis-4-{[4-(dimethylamino)quinazolin-2-yl]amino}cyclohexyl)-N′-(2-ethylphenyl)urea], the IC50 is below 50 nM.

In the case of `CN(C)c1nc(N[C@H]2CC[C@@H](NC(=O)Nc3cccc(C(F)(F)F)c3F)CC2)nc2ccccc12` [compound 96], the IC50 is above 200 nM.

As to `CN(C)c1nc(N[C@H]2CC[C@@H](NC(=O)Nc3cc(C(F)(F)F)ccc3F)CC2)nc2ccccc12` [compound 97, N-(cis-4-{[4-(dimethylamino)quinazolin-2-yl]amino}cyclohexyl)-N′-[2-fluro-5-(trifluoromethyl)phenyl]urea], the IC50 is above 200 nM.

Regarding `Cc1ccc(F)c(NC(=O)N[C@H]2CC[C@@H](Nc3nc(N(C)C)c4ccccc4n3)CC2)c1` [compound 98, N-(cis-4-{[4-(dimethylamino)quinazolin-2-yl]amino}cyclohexyl)-N′-(2-fluro-5-methylphenyl)urea], the IC50 is above 200 nM.

Consider `CN(C)c1nc(N[C@H]2CC[C@@H](NC(=O)Nc3cc([N+](=O)[O-])ccc3F)CC2)nc2ccccc12` [compound 99], for which the IC50 was above 200 nM.

In the case of `CN(C)c1nc(N[C@H]2CC[C@@H](NC(=O)NCc3ccccc3F)CC2)nc2ccccc12` [compound 100, N-(cis-4-{[4-(dimethylamino)quinazolin-2-yl]amino}cyclohexyl)-N′-(2-fluorobenzyl)urea], the IC50 is below 50 nM.

As to `CN(C)c1nc(N[C@H]2CC[C@@H](NC(=O)Nc3ccccc3I)CC2)nc2ccccc12` [compound 101, N-(cis-4-{[4-(dimethylamino)quinazolin-2-yl]amino}cyclohexyl)-N′-(2-iodophenyl)urea], the IC50 is below 50 nM.

For the compound `Cc1cccc(C(C)C)c1NC(=O)N[C@H]1CC[C@@H](Nc2nc(N(C)C)c3ccccc3n2)CC1` [compound 102, N-(cis-4-{[4-(dimethylamino)quinazolin-2-yl]amino}cyclohexyl)-N′-(2-isopropyl-6-methylphenyl)urea], the IC50 is below 50 nM.

For `CC(C)c1ccccc1NC(=O)N[C@H]1CC[C@@H](Nc2nc(N(C)C)c3ccccc3n2)CC1` [compound 103, N-(cis-4-{[4-(dimethylamino)quinazolin-2-yl]amino}cyclohexyl)-N′-(2-isopropylphenyl)urea], the IC50 is below 50 nM.

For `COc1cc([N+](=O)[O-])ccc1NC(=O)N[C@H]1CC[C@@H](Nc2nc(N(C)C)c3ccccc3n2)CC1` [compound 104, N-(cis-4-{[4-(dimethylamino)quinazolin-2-yl]amino}cyclohexyl)-N′-(2-methoxy-4-nitrophenyl)urea], the IC50 fell in the range of 50 to 200 nM.

As to `COc1ccc(C)cc1NC(=O)N[C@H]1CC[C@@H](Nc2nc(N(C)C)c3ccccc3n2)CC1` [compound 105, N-(cis-4-{[4-(dimethylamino)quinazolin-2-yl]amino}cyclohexyl)-N′-(2-methoxy-5-methylphenyl)urea], the IC50 was in the range of 50 to 200 nM.

`COc1ccc([N+](=O)[O-])cc1NC(=O)N[C@H]1CC[C@@H](Nc2nc(N(C)C)c3ccccc3n2)CC1` [compound 106]: the IC50 was above 200 nM.

For `Cc1c(NC(=O)N[C@H]2CC[C@@H](Nc3nc(N(C)C)c4ccccc4n3)CC2)cccc1[N+](=O)[O-]` [compound 107, N-(cis-4-{[4-(dimethylamino)quinazolin-2-yl]amino}cyclohexyl)-N′-(2-methyl-3-nitrophenyl)urea], the IC50 was below 50 nM.

For the compound `Cc1cc([N+](=O)[O-])ccc1NC(=O)N[C@H]1CC[C@@H](Nc2nc(N(C)C)c3ccccc3n2)CC1` [compound 108, N-(cis-4-{[4-(dimethylamino)quinazolin-2-yl]amino}cyclohexyl)-N′-(2-methyl-4-nitrophenyl)urea], the IC50 was below 50 nM.

With `Cc1ccc([N+](=O)[O-])cc1NC(=O)N[C@H]1CC[C@@H](Nc2nc(N(C)C)c3ccccc3n2)CC1` [compound 109, N-(cis-4-{[4-(dimethylamino)quinazolin-2-yl]amino}cyclohexyl)-N′-(2-methyl-5-nitrophenyl)urea], the IC50 was below 50 nM.

Regarding `Cc1cccc([N+](=O)[O-])c1NC(=O)N[C@H]1CC[C@@H](Nc2nc(N(C)C)c3ccccc3n2)CC1` [compound 110], the IC50 was above 200 nM.
